From ChEMBL document CHEMBL1150189, “Determination of cardenolides in hairy root cultures of Digitalis lanata by enzyme-linked immunosorbent assay” (J Nat Prod, 1990)

Organism: Mus musculus
Assay: Binding affinity to mouse Monoclonal antibody DIG 64.2B.5 by ELISA relative to digoxin

Structure (SMILES)	Ratio IC50
C[C@]12CC[C@H](O)C[C@H]1CC[C@@H]1[C@@H]2CC[C@]2(C)[C@@H](C3=CC(=O)OC3)CC[C@]12O	23000
C[C@H]1O[C@@H](O[C@H]2[C@@H](O)C[C@H](O[C@H]3[C@@H](O)C[C@H](O[C@H]4CC[C@@]5(C)[C@H](CC[C@@H]6[C@@H]5CC[C@]5(C)[C@@H](C7=CC(=O)OC7)[C@@H](O)C[C@]65O)C4)O[C@@H]3C)O[C@@H]2C)C[C@H](O)[C@@H]1O	46
CC(=O)O[C@H]1C[C@H](O[C@H]2[C@@H](O)C[C@H](O[C@H]3[C@@H](O)C[C@H](O[C@H]4CC[C@@]5(C)[C@H](CC[C@@H]6[C@@H]5C[C@@H](O)[C@]5(C)[C@@H](C7=CC(=O)OC7)CC[C@]65O)C4)O[C@@H]3C)O[C@@H]2C)O[C@H](C)[C@H]1O[C@@H]1O[C@H](CO)[C@@H](O)[C@H](O)[C@H]1O	1.2
C[C@]12CC[C@H](O)C[C@H]1CC[C@@H]1[C@@H]2C[C@@H](O)[C@]2(C)[C@@H](C3=CC(=O)OC3)CC[C@]12O	1.2
C[C@H]1O[C@@H](O[C@H]2[C@@H](O)C[C@H](O[C@H]3[C@@H](O)C[C@H](O[C@H]4CC[C@@]5(C)[C@H](CC[C@@H]6[C@@H]5CC[C@]5(C)[C@@H](C7=CC(=O)OC7)CC[C@]65O)C4)O[C@@H]3C)O[C@@H]2C)C[C@H](O)[C@@H]1O	2800
C[C@@H]1O[C@@H](O[C@H]2C[C@@H](O)[C@]3(CO)[C@H]4[C@H](O)C[C@]5(C)[C@@H](C6=CC(=O)OC6)CC[C@]5(O)[C@@H]4CC[C@]3(O)C2)[C@H](O)[C@H](O)[C@H]1O	> 6e+06
C[C@H]1OC(O)C[C@H](O)[C@@H]1O (stereo partly specified)	> 1.2e+08
C[C@]12CC[C@H](O)C[C@H]1CC[C@@H]1[C@@H]2CC[C@]2(C)[C@@H](C3=CC(=O)OC3)[C@@H](O)C[C@]12O	> 540000
CO[C@@H]1[C@@H](O)[C@H](O[C@H]2CC[C@@]3(C)[C@H](CC[C@@H]4[C@@H]3CC[C@]3(C)[C@@H](C5=CC(=O)OC5)[C@@H](O)C[C@]43O)C2)O[C@H](C)[C@@H]1O[C@@H]1O[C@H](CO)[C@@H](O)[C@H](O)[C@H]1O	16000
C[C@@H]1CC[C@@]2(OC1)O[C@H]1[C@@H](O)[C@H]3[C@@H]4CC[C@H]5C[C@@H](O[C@@H]6O[C@H](CO)[C@H](O[C@@H]7O[C@H](CO)C(O)[C@H](O[C@@H]8OC[C@@H](O)[C@H](O)[C@H]8O)[C@H]7O[C@@H]7O[C@H](CO)[C@H](O)[C@H](O[C@@H]8O[C@H](CO)[C@@H](O)[C@H](O)[C@H]8O)[C@H]7O)[C@H](O)[C@H]6O)[C@H](O)C[C@]5(C)[C@H]4CC[C@]3(C)[C@H]1[C@@H]2C (stereo partly specified)	> 6e+06
C[C@H]1O[C@@H](O[C@H]2CC[C@@]3(C)[C@H](CC[C@@H]4[C@@H]3C[C@@H](O)[C@]3(C)[C@@H](C5=CC(=O)OC5)CC[C@]43O)C2)C[C@H](O)[C@@H]1O[C@H]1C[C@H](O)[C@H](O[C@H]2C[C@H](O)[C@H](O[C@@H]3O[C@H](CO)[C@@H](O)[C@H](O)[C@H]3O)[C@@H](C)O2)[C@@H](C)O1	1.8
